No end group written: not given here.
Tested on: explants of human skin
Assay: Release of histamine induced by CRH in explants of human skin (ex vivo cutaneous stress model, ELISA)
Format: cell-based
Protocol: To evaluate the activity of the combination of the invention on the release of histamine, which is an allergy mediator, a cutaneous stress model is reproduced ex vivo by applying a solution of CRH in the survival medium of explants of human skin.
Three explants of skin with a diameter of 8 mm are prepared from healthy human skin originating from surgical removal.
They are placed in 24-well plates and left to stand in an appropriate medium (MCDB 153, insulin, CaCl2, gentamycin) for 24 hours.
CRH (from Neosystem) is dissolved at a concentration of 231 μM in phosphate buffer (PBS) (pH 7.2).
First of all a 5% by weight (50 mg/ml) solution is prepared for each of the essential oils, in ethanol for the helichrysum oil and in DMSO for the cannabis oil.
The 5% by weight solutions are subsequently diluted at the time of use to 1/1000th in the survival medium of the explants, to give the different treatment solutions.
The combination of cannabis and helichrysum essential oils is tested in the form of a treatment solution containing these two essential oils, each at a concentration of 0.005% by weight (50:50 ratio). Each essential oil is likewise tested on its own in the form of a 0.005% by weight treatment solution.
In each well the explant is at the surface of the survival medium. […]

In the case of “corticotropin-releasing hormone (SEEPPISLDLTFHLLREVLEMARAEQLAQQAHSNRKLMEII; not fully specified (C-terminus); ends and bridges not checked; UniProt P06850 154-194, looked up) [CRH, CRH (from Neosystem), stimulus of histamine release, positive control]”, the “Stimulation of the release of histamine by skin explants (in words)” value (CRH on skin explants maintained in survival mode) is reported as “induces significant stimulation of the release of histamine” and the Histamine (stimulated with CRH 7.7 μM for 2 hours, no essential oil pretreatment (positive control), solvent control 15.3 +/− 1.0) is reported as 21.8 ± 1.4 ng/mL.
